Test results: article PMC7413516, “Antidepressant-like activity and safety profile evaluation of 1H-imidazo[2,1-f]purine-2,4(3H,8H)-dione derivatives as 5-HT1A receptor partial agonists” (PLoS ONE, 2020)
Where “and” joins values, the source holds several entries; their conditions need not be identical. Identical values can stand only once. Like-named read-outs stand apart in the source and are kept apart here.

Assay: Pharmacokinetic study in mice, plasma and brain structures, LC/MS/MS
Assay type: in vivo, Swiss albino mice
Settings: 1.25 mg/kg i.p.; for Kp: ratio of AUC values
Method: Blood samples from the Swiss albino mice were collected at 0 (pre-dose), 5, 15, 30, 60, 120, 240 and 480 min after a compound administration. The blood samples and brain structures were collected under general anesthesia induced by i.p. injection of 50 mg/kg ketamine plus 8 mg/kg xylazine. The blood samples were taken into heparinized tubes, immediately centrifuged at 1000 × g for 10 min, and plasma was collected. The plasma samples and brain structures were immediately frozen at -30°C and -80°C, respectively.
The plasma and tissue sample pretreatment procedure involved acetonitrile precipitation. A 5 μL aliquot of the IS working solution (100 ng/mL) was added to 50 μL of the collected mouse plasma sample, which was then vortex-mixed for 10 seconds. Thereafter, 200 μL of acetonitrile was added, vortexed during 20 min, and then centrifuged (1000 × g, 10 min). The supernatant (100 μL) was then transferred to insert placed in an autosampler vial, and a 10 μL volume of this was injected onto the HPLC column. Tissue samples were thawed before use, and whole hippocampus, striatum and frontal cortex were weighted and placed in a glass mortar and pestle tissue grinder and homogenized with an appropriate amount of phosphate buffer (pH 7.4) in 1:5 ratio. Afterward, 50 μL of tissue homogenates were transferred to new Eppendorf tubes and spiked with 5 μL of the internal standard working solution. All samples were stored on ice during the preparation process. This was followed by procedures like those described above.
The LC/ESI-MS/MS experiments were performed on an Applied Biosystems/MDS Sciex (Concord, Ontario, Canada) API 2000 triple quadrupole mass spectrometer equipped with an electrospray (ESI) ionization interface. This instrument was coupled to an Agilent 1100 (Agilent Technologies, Waldbronn, Germany) LC system. Data acquisition and processing were accomplished using Sciex Analyst 1.4.2 data collection and integration software.
An XBridge C18 (2.1 x 30 mm, 3.5 μm) analytical column (Waters, Milford, Massachusetts, USA) was used for compound separation. The temperatures of the column thermostat and the autosampler were set at 25°C and 10°C, respectively. The mobile phase consisted of a mixture of acetonitrile with addition of 0.1% formic acid (solvent A) and water with addition of 0.1% formic acid (solvent B) and was set at a flow rate of 0.6 mL/min. Starting amount of solvent A is 10%, isocratic elution from 0 to 3 min, and then gradient up to 90% of solvent A, and maintained to 10 min, and then gradient down to 10% of solvent A, and maintained to 15 min.
The ion source parameters were as follows: ion spray voltage: 5500 V; nebulizer gas (gas 1): 20 psi; turbo gas (gas 2): 25 psi; temperature of the heated nebulizer: 400°C; curtain gas: 40 psi; collision gas: 6 psi. Mass spectra were acquired by SRM with precursor/predominant product ion transitions for each analyte. The mass spectral Q1→Q3 transitions monitored for AZ-853, AZ-861 and for IS (nebivolol), were m/z 453.9→235.1; 504.3→285.1 and 406.2→151.1, respectively. The peak widths of precursor and product ions were set to 0.7 full width half-height. Quantification was done via peak area ratio.
Pharmacokinetic parameters were calculated by a non-compartmental approach from the average concentration values, using Phoenix WinNonlin software (Certara, Princeton, NJ 08540 USA). First order elimination rate constant (λz) was calculated by linear regression of time versus log concentration. Next, the area under the mean serum and tissue concentration versus time curve (AUC0→t) was estimated using the log-linear trapezoidal rule (1), where Ci is the plasma concentration measured at t1.
AUC0→t=∑i=1n((Ci+Ci+1)/2)∙(ti+1−ti). (1)
Area under the first-moment curve (AUMC0→t) was estimated by calculation of the total area under the first-moment curve using the Eq (2), where Ci is the plasma concentration measured at t1. AUMC0→t=∑i=1n((ti∙Ci+ti+1∙Ci+1)/2)∙(ti+1−ti). […]

For `Cn1c(=O)c2c(nc3n(CCCCN4CCN(c5cccc(C(F)(F)F)c5)CC4)ccn23)n(C)c1=O` [AZ-861, 1,3-dimethyl-8-(4-(4-(3-(trifluoromethyl)phenyl)piperazin-1-yl)butyl)-1H-imidazo[2,1-f]purine-2,4(3H,8H)-dione], the t0.5 was “ca. 1.5 h”, the “t0.5, frontal cortex” value was 91.6 min and the “t0.5, hippocampus” value was 110.4 min. The “t0.5, striatum” value was 83 min, the “t0.5, plasma” value (1.25 mg/kg) was 97 min and 97.5 min and the “Concentration, plasma (individual animals)” value (“Concentration, plasma” below) (5 min, 1.25 mg/kg) was 45.82 ng/mL. For the same compound, the “Concentration, frontal cortex (individual animals)” value (“Concentration, frontal cortex” for short) (15 min, 1.25 mg/kg) was 230.57 ng/mL and 280.45 ng/mL and 263.78 ng/mL and 270.14 ng/mL and 226.47 ng/mL, the “Concentration, hippocampus (individual animals)” value (“Concentration, hippocampus” below) (15 min, 1.25 mg/kg) was 234.13 ng/mL and 378.52 ng/mL and 328.15 ng/mL and 322.19 ng/mL and 317.44 ng/mL and the “Concentration, plasma” value (15 min, 1.25 mg/kg) was 44.70 ng/mL and 36.90 ng/mL and 42.80 ng/mL and 28.74 ng/mL and 38.15 ng/mL. For the same compound, the “Concentration, striatum (individual animals)” value (“Concentration, striatum” below) (15 min, 1.25 mg/kg) was 389.35 ng/mL and 271.77 ng/mL and 374.54 ng/mL and 325.44 ng/mL and 267.13 ng/mL, the “Concentration, frontal cortex” value (30 min, 1.25 mg/kg) was 184.45 ng/mL and 218.78 ng/mL and 190.14 ng/mL and 183.24 ng/mL and 219.17 ng/mL and the “Concentration, hippocampus” value (30 min, 1.25 mg/kg) was 192.35 ng/mL and 319.65 ng/mL and 217.19 ng/mL and 301.16 ng/mL and 245.19 ng/mL. The “Concentration, plasma” value (30 min, 1.25 mg/kg) was 31.10 ng/mL and 30.60 ng/mL and 22.40 ng/mL and 15.17 ng/mL and 19.56 ng/mL and 30.17 ng/mL, the “Concentration, striatum” value (30 min, 1.25 mg/kg) was 310.53 ng/mL and 258.57 ng/mL and 322.23 ng/mL and 318.66 ng/mL and 277.19 ng/mL and the “Concentration, frontal cortex” value (60 min, 1.25 mg/kg) was 97.18 ng/mL and 109.15 ng/mL and 91.75 ng/mL and 83.56 ng/mL and 89.47 ng/mL. The “Concentration, hippocampus” value (60 min, 1.25 mg/kg) was 110.60 ng/mL and 98.83 ng/mL and 88.50 ng/mL and 94.16 ng/mL and 88.17 ng/mL, the “Concentration, plasma” value (60 min, 1.25 mg/kg) was 6.60 ng/mL and 4.60 ng/mL and 6.58 ng/mL and 5.72 ng/mL and 4.19 ng/mL and the “Concentration, striatum” value (60 min, 1.25 mg/kg) was 69.53 ng/mL and 62.19 ng/mL and 51.27 ng/mL and 55.66 ng/mL and 48.45 ng/mL. The “Concentration, frontal cortex” value (120 min, 1.25 mg/kg) was 41.78 ng/mL and 43.56 ng/mL and 39.11 ng/mL and 40.15 ng/mL and 41.18 ng/mL, the “Concentration, hippocampus” value (120 min, 1.25 mg/kg) was 51.18 ng/mL and 56.82 ng/mL and 60.95 ng/mL and 47.42 ng/mL and 49.13 ng/mL and the “Concentration, plasma” value (120 min, 1.25 mg/kg) was 2.36 ng/mL and 2.87 ng/mL and 3.33 ng/mL and 3.12 ng/mL and 1.97 ng/mL. The “Concentration, striatum” value (120 min, 1.25 mg/kg) was 30.75 ng/mL and 29.92 ng/mL and 21.66 ng/mL and 19.44 ng/mL and 23.17 ng/mL, the “Concentration, frontal cortex” value (240 min, 1.25 mg/kg) was 18.75 ng/mL and 10.56 ng/mL and 16.25 ng/mL and 9.48 ng/mL and the “Concentration, hippocampus” value (240 min, 1.25 mg/kg) was 15.35 ng/mL and 24.14 ng/mL and 23.55 ng/mL and 16.56 ng/mL. The “Concentration, plasma” value (240 min, 1.25 mg/kg) was 0.67 ng/mL and 0.70 ng/mL and 0.34 ng/mL and 0.41 ng/mL and 0.57 ng/mL and 0.66 ng/mL, the “Concentration, striatum” value (240 min, 1.25 mg/kg) was 4.87 ng/mL and 5.95 ng/mL and 6.85 ng/mL and 4.94 ng/mL and the Vd/F (plasma, 1.25 mg/kg) was 83 L/kg and 83.4 L/kg. It also gave a Kp (Swiss albino, mouse, frontal cortex, ip, read-out: Brain structure-to-plasma concentration ratio, frontal cortex (FC/P)) of 10.5, an AUC(0-t) (Swiss albino, mouse, frontal cortex, ip, read-out: AUC0→t, frontal cortex (converted)) of 363 ng·h/mL and an MRT (Swiss albino, mouse, frontal cortex, ip, read-out: MRT, frontal cortex (converted)) of 1.54 h. The concentration at 5 min (Swiss albino, mouse, frontal cortex, ip, 1.25 mg/kg, 5 min, read-out: Concentration, frontal cortex (Mean)) was 355 ng/mL, the concentration at 5 min (Swiss albino, mouse, frontal cortex, ip, 1.25 mg/kg, 5 min, read-out: Concentration, frontal cortex (individual animals)) was 408 ng/mL and the concentration at 15 min (Swiss albino, mouse, frontal cortex, ip, 1.25 mg/kg, 15 min, read-out: Concentration, frontal cortex (Mean)) was 251 ng/mL. It also gave a concentration at 15 min (Swiss albino, mouse, frontal cortex, ip, 1.25 mg/kg, 15 min, read-out: Concentration, frontal cortex (individual animals)) of 233 ng/mL, a concentration at 30 min (Swiss albino, mouse, frontal cortex, ip, 1.25 mg/kg, 30 min, read-out: Concentration, frontal cortex (Mean)) of 201 ng/mL and a concentration at 30 min (Swiss albino, mouse, frontal cortex, ip, 1.25 mg/kg, 30 min, read-out: Concentration, frontal cortex (individual animals)) of 209 ng/mL. It also gave a concentration at 60 min (Swiss albino, mouse, frontal cortex, ip, 1.25 mg/kg, 60 min, read-out: Concentration, frontal cortex (Mean)) of 95.8 ng/mL, a concentration at 60 min (Swiss albino, mouse, frontal cortex, ip, 1.25 mg/kg, 60 min, read-out: Concentration, frontal cortex (individual animals)) of 104 ng/mL and a concentration at 120 min (Swiss albino, mouse, frontal cortex, ip, 1.25 mg/kg, 120 min, read-out: Concentration, frontal cortex (Mean)) of 41 ng/mL. The concentration at 120 min (Swiss albino, mouse, frontal cortex, ip, 1.25 mg/kg, 120 min, read-out: Concentration, frontal cortex (individual animals)) was 40.3 ng/mL, the concentration at 240 min (Swiss albino, mouse, frontal cortex, ip, 1.25 mg/kg, 240 min, read-out: Concentration, frontal cortex (Mean)) was 12.8 ng/mL and the concentration at 240 min (Swiss albino, mouse, frontal cortex, ip, 1.25 mg/kg, 240 min, read-out: Concentration, frontal cortex (individual animals)) was 9.95 ng/mL. It also gave a concentration at 480 min (Swiss albino, mouse, frontal cortex, ip, 1.25 mg/kg, read-out: Concentration, frontal cortex (Mean)) of 2.98 ng/mL, a concentration at 480 min (Swiss albino, mouse, frontal cortex, ip, 1.25 mg/kg, read-out: Concentration, frontal cortex (individual animals)) of 1.96 ng/mL and a Cmax (Swiss albino, mouse, frontal cortex, ip, 1.25 mg/kg, read-out: Cmax, frontal cortex) of 355 ng/g. The Tmax (Swiss albino, mouse, frontal cortex, ip, 1.25 mg/kg, read-out: tmax, frontal cortex (converted)) was 5 min, the Kp (Swiss albino, mouse, hippocampus, ip, read-out: Brain structure-to-plasma concentration ratio, hippocampus (H/P)) was 12.6 and the AUC(0-t) (Swiss albino, mouse, hippocampus, ip, read-out: AUC0→t, hippocampus (converted)) was 436 ng·h/mL. The MRT (Swiss albino, mouse, hippocampus, ip, read-out: MRT, hippocampus (converted)) was 1.78 h and the concentration at 5 min (Swiss albino, mouse, hippocampus, ip, 1.25 mg/kg, 5 min, read-out: Concentration, hippocampus (Mean)) was 274 ng/mL.
